Here are results for 18 molecules from US20230077362A1 (CORTEVA AGRISCIENCE LLC, priority 2019, published 2023).

Molecules are shown by their SMILES.

Holding throughout (assay type): in vivo
Test [1] concerns Beet Armyworm (Spodoptera exigua) ("BAW"), second instar larvae. The test is described as follows: Bioassay on beet armyworm (BAW), 128-well diet tray assay. Conditions: Spodoptera exigua, read-out: BAW (Biological Results, rating). A digest of the protocol: (§1)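 Second-instar larvae on diet in 128-well trays, covered and held at 25° C, 14:10 light-dark, for five to seven days. Percent mortality scored per well and averaged over eight wells; activity reported as a rating category.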

Test [2] concerns Cabbage Looper (Trichoplusia ni) ("CL"), second instar larvae. The test is described as follows: Bioassay on cabbage looper (CL), 128-well diet tray assay. Conditions: Trichoplusia ni, read-out: CL (Biological Results, rating). A digest of the protocol:
as §1

The subject of test [3] is Green Peach Aphid ("GPA") (Myzus persicae), wingless adult and nymph stages. The test is described as follows: Bioassay on green peach aphid (GPA), foliar spray on infested cabbage seedlings. Conditions: Myzus persicae, foliar, 72 h, read-out: GPA (Biological Results, rating). A digest of the protocol: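 Cabbage seedlings with 2-3 true leaves, infested one day earlier with 20-50 wingless adult and nymph GPA, sprayed to runoff on both leaf sides; solvent check held 20% acetone/methanol (1:1). Live aphids counted after three days at about 25° C; corrected % control = 100*(X−Y)/X versus solvent check.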

In the case of `CCCc1ccc(OCC)cc1N1C(=O)CS/C1=N\C(=O)Nc1ccc(-c2ncn(-c3ccc(OC(F)(F)F)cc3)n2)cc1F` [Compound J169, (Z)-1-(3-(5-Ethoxy-2-propylphenyl)-4-oxothiazolidin-2-ylidene)-3-(2-fluoro-4-(1-(4-(trifluoromethoxy)phenyl)-1H-1,2,4-triazol-3-yl)phenyl)urea], the pest or weed control at 50 µg/cm2 in test [1] and in test [2] was 50 to 100% throughout. Moreover, the pest or weed control at 200 µg/mL in test [3] lay within 0 to 80%.

On to `COCOc1cc(-c2ncn(-c3ccc(OC(F)(F)F)cc3)n2)ccc1NC(=O)/N=C1\SCC(=O)N1c1cc(N(C)C)ccc1C(C)C` [Compound J172, (Z)-1-(3-(5-(Dimethylamino)-2-isopropylphenyl)-4-oxothiazolidin-2-ylidene)-3-(2-(methoxymethoxy)-4-(1-(4-(trifluoromethoxy)phenyl)-1H-1,2,4-triazol-3-yl)phenyl)urea], for which the pest or weed control at 50 µg/cm2 in test [1] and in test [2] was 50 to 100% in each case. Also, the pest or weed control at 200 µg/mL in test [3] is 0 to 80%.

On to `CCOCc1ccc(C)cc1N1C(=O)CS/C1=N\C(=O)Nc1ccc(-c2ncn(-c3ccc(OC(F)(F)F)cc3)n2)cc1F` [Compound J180, (Z)-1-(3-(2-(Ethoxymethyl)-5-methylphenyl)-4-oxothiazolidin-2-ylidene)-3-(2-fluoro-4-(1-(4-(trifluoromethoxy)phenyl)-1H-1,2,4-triazol-3-yl)phenyl)urea], for which the pest or weed control at 50 µg/cm2 in test [1] and in test [2] was 50 to 100% each time. For the same molecule, the pest or weed control at 200 µg/mL in test [3] lay in the range of 0 to 80%.

Take `COC(c1ccc(C)cc1N1C(=O)CS/C1=N\C(=O)Nc1ccc(-c2ncn(-c3ccc(OC(F)(F)F)cc3)n2)cc1F)C(F)(F)F` (stereo not drawn) [Compound J181, (Z)-1-(2-Fluoro-4-(1-(4-(trifluoromethoxy)phenyl)-1H-1,2,4-triazol-3-yl)phenyl)-3-(3-(5-methyl-2-(2,2,2-trifluoro-1-methoxyethyl)phenyl)-4-oxothiazolidin-2-ylidene)urea]: the pest or weed control at 50 µg/cm2 in test [1] and in test [2] was 50 to 100% throughout. Further, the pest or weed control at 200 µg/mL in test [3] lay in the range of 0 to 80%.

Take `CC(C)c1cc(F)c(N(C)C)cc1N1C(=O)CS/C1=N\C(=O)Nc1ccc(-c2ncn(-c3ccc(C(F)(F)F)cc3)n2)cc1F` [Compound J183, (Z)-1-(3-(5-(Dimethylamino)-4-fluoro-2-isopropylphenyl)-4-oxothiazolidin-2-ylidene)-3-(2-fluoro-4-(1-(4-(trifluoromethyl)phenyl)-1H-1,2,4-triazol-3-yl)phenyl)urea]: the pest or weed control at 50 µg/cm2 in test [1] and in test [2] was 50 to 100% throughout. For the same molecule, the pest or weed control at 200 µg/mL in test [3] lay in the range of 0 to 80%.

`CCN(C(C)=O)c1ccc(C(C)C)c(N2C(=O)CS/C2=N\C(=O)Nc2ccc(-c3ncn(-c4ccc(OC(F)(F)F)cc4)n3)cc2F)c1` [Compound J189, (Z)-N-Ethyl-N-(3-(2-(((2-fluoro-4-(1-(4-(trifluoromethoxy)phenyl)-1H-1,2,4-triazol-3-yl)phenyl)carbamoyl)imino)-4-oxothiazolidin-3-yl)-4-isopropylphenyl)acetamide]: the pest or weed control at 50 µg/cm2 in test [1] and in test [2] was 50 to 100% throughout. In addition, the pest or weed control at 200 µg/mL in test [3] lay within 0 to 80%.

As for `CCOc1ccc(N(C)C)cc1N1C(=O)CS/C1=N\C(=O)Nc1ccc(-c2ncn(-c3ccc(OC(F)(F)F)cc3)n2)cc1F` [Compound J192, (Z)-1-(3-(5-(Dimethylamino)-2-ethoxyphenyl)-4-oxothiazolidin-2-ylidene)-3-(2-fluoro-4-(1-(4-(trifluoromethoxy)phenyl)-1H-1,2,4-triazol-3-yl)phenyl)urea], the pest or weed control at 50 µg/cm2 in test [1] and in test [2] was 50 to 100% throughout. Also, the pest or weed control at 200 µg/mL in test [3] was in the range of 0 to 80%.

With `CN(C)c1ccc(OCC(F)(F)F)c(N2C(=O)CS/C2=N\C(=O)Nc2ccc(-c3ncn(-c4ccc(OC(F)(F)F)cc4)n3)cc2F)c1` [Compound J193, (Z)-1-(3-(5-(Dimethylamino)-2-(2,2,2-trifluoroethoxy)phenyl)-4-oxothiazolidin-2-ylidene)-3-(2-fluoro-4-(1-(4-(trifluoromethoxy)phenyl)-1H-1,2,4-triazol-3-yl)phenyl)urea], the pest or weed control at 50 µg/cm2 in test [1] and in test [2] was 50 to 100% in each case. Besides, the pest or weed control at 200 µg/mL in test [3] lay within 0 to 80%.

For `Cc1ccc(COCC(F)(F)F)c(N2C(=O)CS/C2=N\C(=O)Nc2ccc(-c3ncn(-c4ccc(OC(F)(F)F)cc4)n3)cc2Cl)c1` [Compound J194, (Z)-1-(2-Chloro-4-(1-(4-(trifluoromethoxy)phenyl)-1H-1,2,4-triazol-3-yl)phenyl)-3-(3-(5-methyl-2-((2,2,2-trifluoroethoxy)methyl)phenyl)-4-oxothiazolidin-2-ylidene)urea], the pest or weed control at 50 µg/cm2 in test [1] and in test [2] was 50 to 100% each time. The pest or weed control at 200 µg/mL in test [3] lay within 0 to 80%.

As for `CCCc1ccc(N(C)C)cc1N1C(=O)CS/C1=N\C(=O)Nc1ccc(-c2ncn(-c3ccc(OC(F)(F)F)cc3)n2)cc1F` [Compound J196, (Z)-1-(3-(5-(Dimethylamino)-2-propylphenyl)-4-oxothiazolidin-2-ylidene)-3-(2-fluoro-4-(1-(4-(trifluoromethoxy)phenyl)-1H-1,2,4-triazol-3-yl)phenyl)urea], the pest or weed control at 50 µg/cm2 in test [1] and in test [2] was 50 to 100% in each case. Further, the pest or weed control at 200 µg/mL in test [3] was in the range of 0 to 80%.

For the molecule `Cc1ccc(OCC(F)(F)F)c(N2C(=O)CS/C2=N\C(=O)Nc2ccc(-c3ncn(-c4ccc(SC(F)(F)F)cc4)n3)cc2F)c1` [Compound J223, (Z)-1-(2-Fluoro-4-(1-(4-((trifluoromethyl)thio)phenyl)-1H-1,2,4-triazol-3-yl)phenyl)-3-(3-(5-methyl-2-(2,2,2-trifluoroethoxy)phenyl)-4-oxothiazolidin-2-ylidene)urea], the pest or weed control at 50 µg/cm2 in test [1] and in test [2] was 50 to 100% each time. The pest or weed control at 200 µg/mL in test [3] lay in the range of 0 to 80%.

Regarding `CCOc1ccc(C)cc1N1C(=O)CS/C1=N\C(=O)Nc1ccc(-c2ncn(-c3ccc(SC(F)(F)F)cc3)n2)cc1F` [Compound J224, (Z)-1-(3-(2-Ethoxy-5-methylphenyl)-4-oxothiazolidin-2-ylidene)-3-(2-fluoro-4-(1-(4-((trifluoromethyl)thio)phenyl)-1H-1,2,4-triazol-3-yl)phenyl)urea], the pest or weed control at 50 µg/cm2 in test [1] and in test [2] was 50 to 100% each time. In test [3], the pest or weed control at 200 µg/mL is 0 to 80%.

Turning to `Cc1ccc(OCCCC(F)(F)F)c(N2C(=O)CS/C2=N\C(=O)Nc2ccc(-c3ncn(-c4ccc(SC(F)(F)F)cc4)n3)cc2F)c1` [Compound J225, (Z)-1-(2-Fluoro-4-(1-(4-((trifluoromethyl)thio)phenyl)-1H-1,2,4-triazol-3-yl)phenyl)-3-(3-(5-methyl-2-(4,4,4-trifluorobutoxy)phenyl)-4-oxothiazolidin-2-ylidene)urea], the pest or weed control at 50 µg/cm2 in test [1] and in test [2] was 50 to 100% each time. Further, the pest or weed control at 200 µg/mL in test [3] was 0 to 80%.

With `COC(c1ccc(C)cc1N1C(=O)CS/C1=N\C(=O)Nc1ccc(-c2ncn(-c3ccc(SC(F)(F)F)cc3)n2)cc1F)C(F)(F)F` (stereo not drawn) [Compound J229, (Z)-1-(2-Fluoro-4-(1-(4-((trifluoromethyl)thio)phenyl)-1H-1,2,4-triazol-3-yl)phenyl)-3-(3-(5-methyl-2-(2,2,2-trifluoro-1-methoxyethyl)phenyl)-4-oxothiazolidin-2-ylidene)urea], the pest or weed control at 50 µg/cm2 in test [1] and in test [2] was 50 to 100% each time. Moreover, in test [3], the pest or weed control at 200 µg/mL was in the range of 0 to 80%.

As to `CCOC(C)c1ccc(C)cc1N1C(=O)CS/C1=N\C(=O)Nc1ccc(-c2ncn(-c3ccc(SC(F)(F)F)cc3)n2)cc1F` (stereo not drawn) [Compound J230, (Z)-1-(3-(2-(1-Ethoxyethyl)-5-methylphenyl)-4-oxothiazolidin-2-ylidene)-3-(2-fluoro-4-(1-(4-((trifluoromethyl)thio)phenyl)-1H-1,2,4-triazol-3-yl)phenyl)urea], the pest or weed control at 50 µg/cm2 in test [1] and in test [2] was 50 to 100% in each case. For the same molecule, the pest or weed control at 200 µg/mL in test [3] fell in the range of 0 to 80%.

`Cc1ccc(C(C)C)c(N2C(=O)CS/C2=N\C(=O)Nc2ccc(-c3ncn(-c4ccc(SC(F)(F)F)cc4)n3)cc2Cl)c1` [Compound J231, (Z)-1-(2-Chloro-4-(1-(4-((trifluoromethyl)thio)phenyl)-1H-1,2,4-triazol-3-yl)phenyl)-3-(3-(2-isopropyl-5-methylphenyl)-4-oxothiazolidin-2-ylidene)urea]: the pest or weed control at 50 µg/cm2 in test [1] and in test [2] was 50 to 100% each time. Also, the pest or weed control at 200 µg/mL in test [3] is 0 to 80%.

As for `COC(C)c1ccc(C)cc1N1C(=O)CS/C1=N\C(=O)Nc1ccc(-c2ncn(-c3ccc(SC(F)(F)F)cc3)n2)cc1Cl` (stereo not drawn) [Compound J232, (Z)-1-(2-Chloro-4-(1-(4-((trifluoromethyl)thio)phenyl)-1H-1,2,4-triazol-3-yl)phenyl)-3-(3-(2-(1-methoxyethyl)-5-methylphenyl)-4-oxothiazolidin-2-ylidene)urea], the pest or weed control at 50 µg/cm2 in test [1] and in test [2] was 50 to 100% in each case. Besides, in test [3], the pest or weed control at 200 µg/mL is 0 to 80%.

For `Cc1ccc(C(C)C)c(N2C(=O)CS/C2=N\C(=O)Nc2ccc(-c3ncn(-c4ccc(C#N)cc4)n3)cc2F)c1` [Compound J287, (Z)-1-(4-(1-(4-Cyanophenyl)-1H-1,2,4-triazol-3-yl)-2-fluorophenyl)-3-(3-(2-isopropyl-5-methylphenyl)-4-oxothiazolidin-2-ylidene)urea], the pest or weed control at 50 µg/cm2 in test [1] and in test [2] was 50 to 100% each time. Further, in test [3], the pest or weed control at 200 µg/mL was 0 to 80%.
